The values below are quoted from earlier work in patent publication EP4005587B1, “PHARMACEUTICAL COMPOSITION FOR TREATING LEVODOPA-INDUCED DYSKINESIA OR FOR SUPPRESSING PROGRESSION THEREOF” (Peptron, Inc., priority 2019, dated 2026).

For data set [1], the system named is lesioned rats.
The conditions of data set [2]: compared to GLP-1-Tf.
Data set [3] concerns MPTP mouse model for Parkinson's disease. The settings on record: given daily for 7 days after treatment.

In the case of exendin-4, the “acute effects of L-DOPA” value in data set [1] (lesioned rats) is “potentiated”. In data set [1] (rat, in vivo), the 6-OHDA induced damage entry is listed as “reduces 6-OHDA induced damage” and the LIDS entry was “progressive reduction”. Besides, the rotarod performance result in data set [2] is given as “improve rotarod performance”. Moreover, the neuro-protection result in data set [3] is given as “not effective”.
